Reference: US4731381A, “Method of treating a person for sickle cell anemia” (Merck & Co., Inc., priority 1986, dated 1988)
Counter-ions that a name gives are not always drawn.

Experiments:
[1] = target: sickle hemoglobin (HbS) (Homo sapiens, UniProt P68871+P69905, E7V); experiment: solubility assay (Csat assay) of sickle hemoglobin; type: biochemical; conditions: for activation at 3000 µM: 3 mM; for activation at 3000 µM / activation at 5000 µM / activation at 7000 µM / activation at 9000 µM: read-out: % increase in Solubility of HbS; for activation at 7000 µM: 7 mM; for activation at 9000 µM: 9 mM
From the text: One major assay for evaluating antisickling agents involves measuring their effect on increasing the concentration at which sickle hemoglobin forms a gel. This is called the solubility or Csat assay.
The solubility assay (Csat assay) measures the ability of a compound to increase solubility of sickle hemoglobin (HbS). […] The higher the ratio, the higher the activity of the compound.
In order to confirm the effectiveness of these compounds in reducing the effect of sickle cell anemia, tests were performed. The materials were tested according to the assay (Csat) developed by Hofrichter et al. (J. Hofrichter, P. D. Ross and W. A. Eaton, Proc. Natl. Acad. Sci., U.S.A. 73, 30-35, 1976). This assay involves deoxygenation of concentrated sickle hemoglobin with dithionite in the presence of different concentrations of the drugs being tested. Samples are then sealed in quartz epr tubes under anaerobic conditions and spun at about 150,000 g for about 21/2 hours at about 35° C. in an ultracentrifuge. This procedure pellets the polymerized HbS (sickle hemoglobin) to the bottom of the tubes and the supernatant (soluble HbS) is measured in the laboratory as the cyanmethemoglobulin derivative. […] Activity is reported as a ratio of the HbS solubility with the particular drug to HbS solubility with no drug, i.e. control. The higher the ratio the greater degree of activity of the drug. The numbers in parenthesis are the percent increase in solubility of HbS; again, the higher the number, the greater the activity. The results of representative compounds from the Examples are shown in Table I as typical of the compounds of the invention.

[2] = tested on: HbS; experiment: chromatographic separation, covalent binding between HbS and the agent
[3] = tested on: erythrocyte membranes; experiment: tests of transport across erythrocyte membranes; type: in vitro ADME

Compound	activation at 3000 µM [1] [%]	activation at 5000 µM ([1]; 5 mM) [%]	activation at 7000 µM [1] [%]	activation at 9000 µM [1] [%]	covalent binding between HbS and the therapeutic agent, in words [2]	solubility ratio (Csat assay) compared with other antisickling agents, in words ([1]; 5 mM, sodium salt)	ability to cross the red blood cell membrane, in words [3]
C=C(CC)C(=O)c1ccc(OCCC(=O)O)c(Cl)c1Cl [Example 1, 3-[2,3-dichloro-4-(2-methylenebutyryl)phenoxy]propionic acid]	26	33	43	69			
C=C(CC)C(=O)c1ccc(OCCCC(=O)O)c(Cl)c1Cl [Example 2, 4-[2,3-dichloro-4-(2-methylenebutyryl)phenoxy]butyric acid]	22	27	37	46			
C=C(CCC)C(=O)c1ccc(OCCCC(=O)O)c(Cl)c1Cl [Example 3, 4-[2,3-dichloro-4-(2-methylenevaleryl)phenoxy]butyric acid]	18	37	46	51			
C=C(CC)C(=O)c1ccc(OCCCCC(=O)O)c(Cl)c1Cl [Example 4, 5-[2,3-dichloro-4-(2-methylenebutyryl)phenoxy]valeric acid]	21	34	52	80			
C=C(CC)C(=O)c1ccc(OCCCCCC(=O)O)c(Cl)c1Cl [Example 5, 6-[2,3-dichloro-4-(2-methylenebutyryl)phenoxy]hexanoic acid]	13	18	26	35			
C=C(CC)C(=O)c1ccc(OCCCC(=O)O)c(Cl)c1Cl [sodium salt of 4-[2,3-dichloro-4-(2-methylenebutyryl)phenoxy]butyric acid]					tight covalent binding between the HbS and the therapeutic agent had occurred	higher solubility ratio than other antisickling agents, such as, dichlorobenzyloxyacetic and p-bromobenzyloxyacetic acids	cross the red blood cell membrane and react with hemoglobin

More lines, main results first:

activation at 3000 µM [1] [%]	activation at 5000 µM ([1]; 5 mM) [%]	activation at 7000 µM [1] [%]	activation at 9000 µM [1] [%]	Compound	covalent binding between HbS and the therapeutic agent, in words [2]	solubility ratio (Csat assay) compared with other antisickling agents, in words ([1]; 5 mM, sodium salt)	ability to cross the red blood cell membrane, in words [3]
19	30	34	48	C=C(CC)C(=O)c1ccc(OC2(C(=O)O)CCC2)c(Cl)c1Cl [Example 6, 1-[2,3-dichloro-4-(2-methylenebutyryl)phenoxy]cyclobutane-1-carboxylic acid]			
14	30	26	39	C=C(CCC)C(=O)c1ccc(OC2(C(=O)O)CCC2)c(Cl)c1Cl [Example 7, 1-[2,3-dichloro-4-(2-methylenevaleryl)phenoxy]cyclobutane-1-carboxylic acid]			
11	21	41	53	C=C(CC)C(=O)c1ccc(OC(C)(C)C(=O)O)c(Cl)c1Cl [Example 8, 2-[2,3-dichloro-4-(2-methylenebutyryl)phenoxy]-2-methylpropionic acid]			
